Target: T1, IKZF2 (Homo sapiens, UniProt Q96SW2+Q9UKS7)
T1 construct: expressed in transfected cells
Test: HiBiT protein tagging assay, in vitro IKZF2 degradation (HEK293)
Format: cell-based
Conditions: IKZF2-HiBiT reporter Flp-In T-REx HEK293 cells, doxycycline-induced, compound overnight (18-24 hr), normalized to DMSO control; read-out: IKZF2 Dmax (maximum degradation at the highest concentration tested)
Protocol: In vitro degradation of IKZF1 and IKZF2 was measured using HiBiT protein tagging and detection technology (Promega).
HiBiT technology (Promega) was used to develop the quantitative assays to measure the cellular IKZFs level by tagging an 11 amino acid HiBit peptides VSGWRLFKKIS (SEQ ID NO:1) to the protein of interest. Reporter plasmids were generated by fusing a linker sequence (GSSGGSSG; SEQ ID NO:2) followed by the HiBiT tag at the C terminus of IKZF1 and IKZF2. The fusion fragments were subsequently cloned into pcDNA5 pcDNA™5/FRT/TO plasmids (Thermo Fisher, cat #V652020) downstream of the Tetracycline operator. The resulting plasmids were co-transfected with pOG44 Flp-Recombinase Expression Vector (Thermo Fisher, cat #V600520) into Flp-In™ T-REx HEK293 line (Thermo Fisher, cat #R78077) and a stable cell pool was selected by adding 100 μg/ml of Hygromycin (Thermo Fisher, cat #10687010). The reporter cell enabled Tet-On inducible reporter expression from a single copy of the integrated gene.
On Day 1, Cells were grown to ˜80% confluency in TC medium (DMEM Glutamax (Gibco10569), 10% Tet free FBS (Takara 631106), and PenStrep Glutamin (Gibco 10378)) in tissue culture flasks. Doxycycline was then added to a final concentration of 1 μg/ml to induce reporter expression at 37° C. overnight.
On Day 2, 125 nL of serially-diluted solution of testing compounds were dispensed into 384-well white solid assay plates via ECHO acoustic liquid handler. Cells were lifted by 0.25% Trypsin (Gibco 25200) then pelleted by centrifugation (Beckman Avanti J-E) at 500×g for 5 min. Cell pellets were resuspended in TC medium at the concentration of 3e5/mL and 25 μL of cell suspension were added into each well of compound-spotted plates. The plates were returned to a 37° C. incubator overnight (18-24 hr).
On Day 3, assay plates were removed from the TC incubator and 25 μL of Nano-Glo lytic detection system (Promega, cat #N3030) was added to each well. Plates were incubated at r.t. for 3 min with shaking, and luminescence was read using an Envision reader (Perkin Elmer).
All raw data was normalized to DMSO control (final concentration: 0.5%) wells as POC and plotted out for EC50 and Dmax (Maximum degradation at the highest concentration tested in the assay).

T1 sequence (Q9UKS7 1-500 isoform Q9UKS7-2): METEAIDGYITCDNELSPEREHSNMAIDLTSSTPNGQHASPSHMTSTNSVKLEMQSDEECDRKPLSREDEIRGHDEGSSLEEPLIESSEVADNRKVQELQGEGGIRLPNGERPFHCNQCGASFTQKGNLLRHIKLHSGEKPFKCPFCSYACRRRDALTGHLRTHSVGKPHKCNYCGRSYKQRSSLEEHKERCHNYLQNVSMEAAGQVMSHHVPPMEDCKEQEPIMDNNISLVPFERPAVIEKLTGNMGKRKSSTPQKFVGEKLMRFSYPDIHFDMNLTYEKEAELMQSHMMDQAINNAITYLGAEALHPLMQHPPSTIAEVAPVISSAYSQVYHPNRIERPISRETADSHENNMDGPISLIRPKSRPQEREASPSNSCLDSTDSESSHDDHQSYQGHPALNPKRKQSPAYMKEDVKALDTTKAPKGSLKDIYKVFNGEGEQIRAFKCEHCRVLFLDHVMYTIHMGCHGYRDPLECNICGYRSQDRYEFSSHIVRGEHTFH
T1 sequence (Q96SW2 whole entry): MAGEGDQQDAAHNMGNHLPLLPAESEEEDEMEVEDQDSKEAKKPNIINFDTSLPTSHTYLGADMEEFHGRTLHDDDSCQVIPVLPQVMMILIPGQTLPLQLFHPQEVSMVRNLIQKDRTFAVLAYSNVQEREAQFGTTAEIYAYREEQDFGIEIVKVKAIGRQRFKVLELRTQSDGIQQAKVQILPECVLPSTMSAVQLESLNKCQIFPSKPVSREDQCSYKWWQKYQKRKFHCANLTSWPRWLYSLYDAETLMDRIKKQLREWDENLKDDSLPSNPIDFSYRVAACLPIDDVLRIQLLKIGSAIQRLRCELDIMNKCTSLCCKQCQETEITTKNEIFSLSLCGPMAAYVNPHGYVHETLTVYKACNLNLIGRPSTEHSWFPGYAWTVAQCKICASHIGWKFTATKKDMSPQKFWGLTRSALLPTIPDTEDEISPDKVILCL
T1 sequence (Q16531 whole entry partner): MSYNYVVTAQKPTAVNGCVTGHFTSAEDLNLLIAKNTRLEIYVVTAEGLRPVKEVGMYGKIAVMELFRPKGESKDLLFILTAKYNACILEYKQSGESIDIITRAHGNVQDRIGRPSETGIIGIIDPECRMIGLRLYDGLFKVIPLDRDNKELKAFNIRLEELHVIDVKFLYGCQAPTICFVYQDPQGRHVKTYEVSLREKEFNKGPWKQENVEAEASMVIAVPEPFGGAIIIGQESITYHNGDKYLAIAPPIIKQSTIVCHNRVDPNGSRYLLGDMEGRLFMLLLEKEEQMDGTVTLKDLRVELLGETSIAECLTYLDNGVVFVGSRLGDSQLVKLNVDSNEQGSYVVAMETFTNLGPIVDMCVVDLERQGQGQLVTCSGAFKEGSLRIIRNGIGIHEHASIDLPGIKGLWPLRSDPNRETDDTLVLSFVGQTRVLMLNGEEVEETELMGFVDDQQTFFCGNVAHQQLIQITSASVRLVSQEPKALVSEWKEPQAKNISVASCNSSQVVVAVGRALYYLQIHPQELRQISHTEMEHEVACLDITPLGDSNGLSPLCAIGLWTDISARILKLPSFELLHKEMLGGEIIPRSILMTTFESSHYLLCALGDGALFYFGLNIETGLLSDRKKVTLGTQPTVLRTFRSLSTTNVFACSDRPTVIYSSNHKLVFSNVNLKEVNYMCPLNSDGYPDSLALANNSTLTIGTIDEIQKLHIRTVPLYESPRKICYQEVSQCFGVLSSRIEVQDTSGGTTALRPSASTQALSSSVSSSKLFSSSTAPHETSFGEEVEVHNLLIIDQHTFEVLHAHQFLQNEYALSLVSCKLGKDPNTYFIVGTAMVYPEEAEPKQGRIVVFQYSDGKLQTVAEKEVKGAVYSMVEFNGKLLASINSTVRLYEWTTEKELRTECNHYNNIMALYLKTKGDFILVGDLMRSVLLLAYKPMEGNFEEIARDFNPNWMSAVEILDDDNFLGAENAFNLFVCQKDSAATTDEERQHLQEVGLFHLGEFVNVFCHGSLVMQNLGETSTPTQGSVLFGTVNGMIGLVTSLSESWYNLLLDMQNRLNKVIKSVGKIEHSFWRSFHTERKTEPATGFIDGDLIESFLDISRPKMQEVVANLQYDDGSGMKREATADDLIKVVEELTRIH

Row | Dmax [%] | Structure (SMILES)
1 | 62 | CS(=O)(=O)NC1CCN(Cc2ccccc2)CC1Oc1ccc2c(c1)CN(C1CCC(=O)NC1=O)C2=O (stereo not drawn) [Example 47, N-((3,4-trans)-1-benzyl-3-((2-(2,6-dioxopiperidin-3-yl)-1-oxoisoindolin-5-yl)oxy)piperidin-4-yl)methanesulfonamide]
2 | 97 | O=C1CCC(N2Cc3cc(O[C@H]4CN(Cc5ccccc5)CC[C@@H]4NCc4ccccc4)ccc3C2=O)C(=O)N1 (stereo partly shown) [Example 2a]
3 | 88 | O=C1CCC(N2Cc3cc(O[C@H]4CN(Cc5ccccc5)CC[C@@H]4NCc4cccc(F)c4)ccc3C2=O)C(=O)N1 (mixture of isomers) [Example 29]
4 | 84 | O=C1CCC(N2Cc3cc(OC4CN(Cc5ccccc5)CCC4NCc4ccccn4)ccc3C2=O)C(=O)N1 (racemic) [Example 13]
5 | 83 | CCNC1CCN(Cc2cccc(-c3ccccc3)c2)CC1Oc1ccc2c(c1)CN(C1CCC(=O)NC1=O)C2=O (racemic) [Example 60]
6 | 77 | O=C1CCC(N2Cc3cc(O[C@H]4CN(CCF)CC[C@@H]4NCc4ccccc4)ccc3C2=O)C(=O)N1 (mixture of isomers) [Example 53]
7 | 89 | O=C1CCC(N2Cc3cc(O[C@H]4CN(Cc5ccccc5)CC[C@@H]4NCc4ccc(F)cc4)ccc3C2=O)C(=O)N1 (mixture of isomers) [Example 26]
8 | 91 | O=C1CCC(N2Cc3cc(O[C@H]4CN(Cc5ccccc5F)CC[C@@H]4NCc4ccccc4)ccc3C2=O)C(=O)N1 (mixture of isomers) [Example 17]
9 | 88 | O=C1CCC(N2Cc3cc(O[C@H]4CN(Cc5cc(F)ccc5F)CC[C@@H]4NCc4ccccc4)ccc3C2=O)C(=O)N1 (mixture of isomers) [Example 23]
10 | 89 | O=C1CCC(N2Cc3cc(O[C@H]4CN(Cc5cccc(F)c5)CC[C@@H]4NCc4ccccc4)ccc3C2=O)C(=O)N1 (mixture of isomers) [Example 19]
11 | 98 | CCN[C@H]1CCN(Cc2ccc(F)cc2)C[C@@H]1Oc1ccc2c(c1)CN(C1CCC(=O)NC1=O)C2=O (stereo partly shown) [Example 64]
12 | 90 | O=C1CCC(N2Cc3cc(O[C@H]4CN(Cc5ccccc5)CC[C@@H]4NCc4ccccc4F)ccc3C2=O)C(=O)N1 (mixture of isomers) [Example 28]
13 | 73 | O=C1CCC(N2Cc3cc(OC4CN(Cc5ccccc5)CCC4NCc4ccncc4)ccc3C2=O)C(=O)N1 (racemic) [Example 15]
14 | 98 | O=C1CCC(N2Cc3cc(OC4CN(Cc5ccccc5)CCC4NCC4CC4)ccc3C2=O)C(=O)N1 (racemic) [Example 37]
15 | 91 | O=C1CCC(N2Cc3cc(OC4CN(Cc5ccccc5)CCC4NCc4cccnc4)ccc3C2=O)C(=O)N1 (racemic) [Example 14]
16 | 97 | O=C1CCC(N2Cc3cc(O[C@H]4CN(Cc5ccc(F)cc5)CC[C@@H]4NCc4ccccc4)ccc3C2=O)C(=O)N1 (mixture of isomers) [Example 18]
17 | 92 | CCNC1CCN(Cc2ccc(F)cc2)CC1Oc1ccc2c(c1)CN(C1CCC(=O)NC1=O)C2=O (racemic) [Example 27]

The next lines start with the molecule.

Row | Structure (SMILES) | Dmax [%]
18 | O=C1CCC(N2Cc3cc(OC4CN(Cc5ccccc5)CCC4NC(=O)c4ccccc4)ccc3C2=O)C(=O)N1 (stereo not drawn) [Example 44, N-((3,4-trans)-1-benzyl-3-((2-(2,6-dioxopiperidin-3-yl)-1-oxoisoindolin-5-yl)oxy)piperidin-4-yl)benzamide] | 79
19 | CC(C)N[C@H]1CCN(Cc2ccn(C)n2)C[C@@H]1Oc1ccc2c(c1)CN(C1CCC(=O)NC1=O)C2=O (stereo partly shown) [Example 66] | 34
20 | O=C1CCC(N2Cc3cc(O[C@H]4CN(CCC(F)(F)F)CC[C@@H]4NCc4ccccc4)ccc3C2=O)C(=O)N1 (mixture of isomers) [Example 52] | 27
21 | CC(C)CN1CCC(NCc2ccccc2)C(Oc2ccc3c(c2)CN(C2CCC(=O)NC2=O)C3=O)C1 (racemic) [Example 6] | 35
22 | CCOC1CN(C2CCN(Cc3ccccc3)CC2Oc2ccc3c(c2)CN(C2CCC(=O)NC2=O)C3=O)C1 (racemic) [Example 58] | 96
23 | N[C@H]1CCN(Cc2ccccc2)C[C@@H]1Oc1ccc2c(c1)CN(C1CCC(=O)NC1=O)C2=O (stereo partly shown) [Example 42a] | 98
24 | O=C1CCC(N2Cc3cc(O[C@@H]4CN(CC(F)(F)F)CC[C@H]4NCc4ccccc4)ccc3C2=O)C(=O)N1 (relative stereo) [Example 40, 3-(5-((trans-4-(benzylamino)-1-(2,2,2-trifluoroethyl)piperidin-3-yl)oxy)-1-oxoisoindolin-2-yl)piperidine-2,6-dione] | 57
25 | CC(C)N[C@H]1CCN(Cc2ncco2)C[C@@H]1Oc1ccc2c(c1)CN(C1CCC(=O)NC1=O)C2=O (stereo partly shown) [Example 67] | 64
26 | O=C1CCC(N2Cc3cc(O[C@H]4CN(Cc5ccc(F)c(F)c5)CC[C@@H]4NCc4ccccc4)ccc3C2=O)C(=O)N1 (mixture of isomers) [Example 22] | 90
27 | O=C1CCC(N2Cc3cc(O[C@H]4CN(Cc5cc(F)cc(F)c5)CC[C@@H]4NCc4ccccc4)ccc3C2=O)C(=O)N1 (mixture of isomers) [Example 25] | 75
28 | O=C1CCC(N2Cc3cc(O[C@H]4CN(Cc5ccc(C(F)(F)F)cc5)CC[C@@H]4NCc4ccccc4)ccc3C2=O)C(=O)N1 (mixture of isomers) [Example 34] | 80

Reference: US12122764B2, “IKAROS zinc finger family degraders and uses thereof” (Gilead Sciences, Inc., priority 2021, dated 2024)
